± gives the expanded uncertainty stated by the source.
Assay: activity coefficient (dimensionless); of the first substance listed, at infinite dilution; xn = mol fraction of the nth substance listed
Conditions: Gas, Chromatography, x1 = 0

Row | Structure (SMILES) | activity coefficient (374 K) | activity coefficient (393.3 K) | activity coefficient (412.5 K) | activity coefficient (394.8 K) | activity coefficient (375.2 K) | activity coefficient (412.6 K)
1 | C=CC=C [1,3-butadiene] + CO | 5 ± 0.2 | 4.7 ± 0.2 | 4.2 ± 0.2 | – | – | –
2 | C=CCC [1-butene] + CO | 7 ± 0.3 | – | 5.6 ± 0.3 | 6.1 ± 0.3 | – | –
3 | C=C(C)C [2-methylpropene] + CO | 6.5 ± 0.3 | 6 ± 0.3 | 5.4 ± 0.3 | – | – | –
4 | C/C=C/C [(E)-2-butene] + CO | – | – | – | 6.6 ± 0.3 | 7.3 ± 0.3 | 6 ± 0.3
